Source: patent US20010047099A1, “4-aminopicolinates and their use as herbicides” (priority 2000, published 2001)

Assays:
Format in all cases: in vivo
[1] = tested on: morningglory (Ipomoea hederacea); assay: Preemergence herbicidal activity; details: Table 6 (headed Post-emergent; text: preemergence), after 3 weeks; for pest or weed control at 280 ppm: rate 280 ppm
Text: (§1) Seeds of the desired test plant species were planted in a soil matrix prepared by mixing a loam soil (43 percent silt, 19 percent clay, and 38 percent sand, with a pH of about 8.1 and an organic matter content of bout 1.5 percent) and sand in a 70 to 30 ratio. The soil matrix was contained in plastic pots with a surface area of 113 square centimeters. When required to ensure good germination and healthy plants. a fungicide treatment and/or other chemical or physical treatment was applied.
(§2) A weighed amount, determined by the highest rate to be tested, of each test compound was placed in a 20 mL glass vial and was dissolved in 4 mL of a 97:3 v/v (volume/volume) mixture of acetone and dimethyl sulfoxide to obtain concentrated stock solutions. […] The stock solutions obtained were diluted with a 99.9:0.1 mixture of water and Tween® […] surfactant to obtain application solutions of known concentration. The solutions containing the highest concentration to be tested were prepared by diluting 2 mL aliquots of the stock solution with 15 mL of the mixture and lower concentrations were prepared by serial dilution of the stock solution. A 2.5 mL aliquot of each solution of known concentration was sprayed evenly onto the soil surface (113 sq. cm) of each seeded pot using a Cornwall 5.0 mL glass syringe fitted with a TeeJet TN-3 hollow cone nozzle to obtain thorough coverage of the soil in each pot. Control pots were sprayed in the same manner with the aqueous mixture.
(§3) The treated pots and control pots were placed in a greenhouse maintained with an approximate 15 hr photoperiod and temperatures of about 23-29° C. during the day and 22-28° C. during the night. Nutrients and water were added on a regular basis and supplemental lighting was provided with overhead metal halide 1000-Watt lamps as necessary. The water was added by top-irrigation. After 3 weeks the condition of the test plants that germinated and grew as compared with that of the untreated plants that germinated and grew was determined visually and scored on a scale of 0 to 100 percent where 0 corresponds to no injury and 100 corresponds to complete kill or no germination.

[2] = tested on: velvetleaf (Abutilon theophrasti); assay: Preemergence herbicidal activity; details: Table 6 (headed Post-emergent; text: preemergence), after 3 weeks; for pest or weed control at 280 ppm: rate 280 ppm
Text: as §1, §2, §3

[3] = tested on: pigweed (Amaranthus retroflexus); assay: Preemergence herbicidal activity; details: Table 6 (headed Post-emergent; text: preemergence), after 3 weeks; for pest or weed control at 280 ppm: rate 280 ppm
Text: as §1, §2, §3

[4] = tested on: cocklebur (Xanthium strumarium); assay: Postemergence herbicidal activity; details: Table 1, visual, after 2 weeks
Method: (§4) Seeds of the desired test plant species were planted in Grace-Sierra MetroMix® 306 planting mixture, which typically has a pH of 6.0 to 6.8 and an organic matter content of about 30 percent, in plastic pots with a surface area of 64 square centimeters. When required to ensure good germination and healthy plants, a fungicide treatment and/or other chemical or physical treatment was applied. The plants were grown for 7-21 days in a greenhouse with an approximate 15 hr photoperiod which was maintained at about 23-29° C. during the day and 22-28° C. during the night. Nutrients and water were added on a regular basis and supplemental lighting was provided with overhead metal halide 1000-Watt lamps as necessary. The plants were employed for testing when they reached the first or second true leaf stage.
(§5) A weighed amount, determined by the highest rate to be tested, of each test compound was placed in a 20 mL glass vial and was dissolved in 4 mL of a 97:3 v/v (volume/volume) mixture of acetone and dimethyl sulfoxide (DMSO) to obtain concentrated stock solutions. […] The concentrated stock solutions obtained were diluted with an aqueous mixture containing acetone, water, isopropyl alcohol, DMSO, Atplus 411F crop oil concentrate, and Triton X-155 surfactant in a 48.5:39:10:1.5:1.0:0.02 v/v ratio to obtain spray solutions of known concentration. The solutions containing the highest concentration to be tested were prepared by diluting 2 mL aliquots of the stock solution with 13 mL of the mixture and lower concentrations were prepared by serial dilution of the stock solution. Approximately 1.5 mL aliquots of each solution of known concentration were sprayed evenly onto each of the test plant pots using a DeVilbiss atomizer driven by compressed air pressure of 2 to 4 psi ([…]) to obtain thorough coverage of each plant. Control plants were sprayed in the same manner with the aqueous mixture. In this test an application rate of 1 ppm results in the application of approximately 1 g/Ha.
(§6) The treated plants and control plants were placed in a greenhouse as described above and watered by sub-irrigation to prevent wash-off of the test compounds. After 2 weeks the condition of the test plants as compared with that of the untreated plants was determined visually and scored on a scale of 0 to 100 percent where 0 corresponds to no injury and 100 corresponds to complete kill.

[5] = tested on: chickweed (Stellaria media); assay: Postemergence herbicidal activity; details: Table 1, visual, after 2 weeks
Method: as §4, §5, §6

[6] = tested on: wild buckwheat (Polygonum convolvulus); assay: Postemergence herbicidal activity; details: Table 1, visual, after 2 weeks
Method: as §4, §5, §6

[7] = Ipomoea, 504 h, read-out: % Control IPOHE
[8] = Abutilon theophrasti, 504 h, read-out: % Control ABUTH
[9] = Amaranthus retroflexus, 504 h, read-out: % Control AMARE
[10] = Xanthium strumarium, post-emergence, 336 h, rate 250 ppm, read-out: Post-emergent % Control XANST
[11] = Stellaria media, post-emergence, 336 h, rate 250 ppm, read-out: Post-emergent % Control STEME
[12] = Fallopia convolvulus, post-emergence, 336 h, rate 250 ppm, read-out: Post-emergent % Control POLCO

Row | Compound | % Control IPOHE ([1]; rate 560 ppm) | % Control ABUTH ([2]; rate 560 ppm) | % Control AMARE ([3]; rate 560 ppm) | Post-emergent % Control XANST ([4]; rate 250 ppm) | Post-emergent % Control STEME ([5]; rate 250 ppm) | Post-emergent % Control POLCO ([6]; rate 250 ppm) | further results
1 | CN(C)C=Nc1cc(Cl)nc(C(=O)O)c1Cl [Compound 40, 4-N,N-Dimethylformamidino-3,6-dichloropyridine-2-carboxylic acid] | 100% | 100% | 100% | 100% | 90% | 100% | –
2 | N,N-diacetyl 4-amino-3,6-dichloropyridine-2-carboxylate [Compound 13] | 95% | 95% | 100% | 95% | 100% | 80% | –
3 | COC(=O)c1nc(Cl)cc(NC(C)=O)c1Cl [Compound 12, Methyl N-acetyl 4-amino-3,6-dichloropyridine-2-carboxylate] | 100% | 95% | 100% | – | – | – | Post-emergent % Control XANST ([4]; rate 125 ppm): 90%; Post-emergent % Control STEME ([5]; rate 125 ppm): 30%; Post-emergent % Control POLCO ([6]; rate 125 ppm): 100%
4 | CCCCOCCOC(=O)c1nc(Cl)cc(N)c1Cl [Compound 10, butoxyethyl 4-amino-3,6-dichloropyridine-2-carboxylate] | – | – | – | – | – | – | pest or weed control at 280 ppm [1, 7]: 100%; pest or weed control at 280 ppm [2, 8]: 100%; pest or weed control at 280 ppm [3, 9]: 100%; pest or weed control at 125 ppm ([4]; Xanthium strumarium, post-emergence, 336 h, rate 125 ppm, read-out: Post-emergent % Control XANST): 90%; pest or weed control at 125 ppm ([5]; Stellaria media, post-emergence, 336 h, rate 125 ppm, read-out: Post-emergent % Control STEME): 50%; pest or weed control at 125 ppm ([6]; Fallopia convolvulus, post-emergence, 336 h, rate 125 ppm, read-out: Post-emergent % Control POLCO): 100%
5 | Nc1cc(Oc2ccc(Cl)c(Cl)c2)nc(C(=O)O)c1Cl [Compound 51, 4-amino-3-chloro-6-(3,4-dichlorophenoxy)-pyridine-2-carboxylic acid] | – | – | – | – | – | – | pest or weed control at 280 ppm [1, 7]: 0%; pest or weed control at 280 ppm [2, 8]: 80%; pest or weed control at 280 ppm [3, 9]: 98%; pest or weed control at 250 ppm [4, 10]: 100%; pest or weed control at 250 ppm [5, 11]: 70%; pest or weed control at 250 ppm [6, 12]: 100%
6 | CON(C)c1cc(Cl)nc(C(=O)O)c1Cl [Compound 35, 4-N-methoxy-N-methyl-3,6-dichloropyridine-2-carboxylic acid] | 85% | 90% | 95% | – | – | – | Post-emergent % Control XANST ([4]; rate 125 ppm): 90%; Post-emergent % Control STEME ([5]; rate 125 ppm): 60%; Post-emergent % Control POLCO ([6]; rate 125 ppm): 100%
7 | O=C(O)c1nc(Cl)cc(NCCO)c1Cl [Compound 31, 4-N-hydroxyethylamino-3,6-dichloropyridine-2-carboxylic acid] | 100% | 95% | 95% | 40% | 30% | 70% | –
8 | O=C(O)c1nc(Cl)cc(-n2cccc2)c1Cl [Compound 37, 4-pyrrolo-3,6-Dichloropyridine-2-carboxylic acid] | 95% | 100% | 100% | – | – | – | Post-emergent % Control XANST ([4]; rate 125 ppm): 90%; Post-emergent % Control STEME ([5]; rate 125 ppm): 70%; Post-emergent % Control POLCO ([6]; rate 125 ppm): 90%
9 | Nc1c(F)c(Br)nc(C(=O)O)c1F [Compound 16, 4-Amino-3,5-difluoro-6-bromopyridine-2-carboxylic acid] | – | – | – | – | – | – | pest or weed control at 560 ppm ([1]; Ipomoea, 504 h, rate 560 ppm, read-out: % Control IPOHE): 80%; pest or weed control at 560 ppm ([2]; Abutilon theophrasti, 504 h, rate 560 ppm, read-out: % Control ABUTH): 0%; pest or weed control at 560 ppm ([3]; Amaranthus retroflexus, 504 h, rate 560 ppm, read-out: % Control AMARE): 70%; pest or weed control at 250 ppm [4, 10]: 60%; pest or weed control at 250 ppm [5, 11]: 30%; pest or weed control at 250 ppm [6, 12]: 70%
10 | Nc1c(Cl)c(C(=O)O)nc(Cl)c1Sc1ccccc1 [Compound 24, 4-Amino-3,6-dichloro-5-phenylthiopyridine-2-carboxylate] | 30% | 50% | 20% | 60% | 50% | 50% | –
11 | CN(O)c1cc(Cl)nc(C(=O)O)c1Cl [Compound 34, 4-N-hydroxy-N-methyl-amino-3,6-dichloropyridine-2-carboxylic acid] | 95% | 100% | 100% | – | – | – | Post-emergent % Control XANST ([4]; rate 125 ppm): 100%; Post-emergent % Control STEME ([5]; rate 125 ppm): 70%; Post-emergent % Control POLCO ([6]; rate 125 ppm): 100%
12 | Nc1c(F)c(Oc2ccc(Cl)c(Cl)c2)nc(C(=O)O)c1Cl [Compound 55, 4-Amino-3-chloro-5-fluoro-6-(3,4-dichlorophenoxy)pyridine-2-carboxylic acid] | – | – | – | – | – | – | pest or weed control at 250 ppm ([1]; Ipomoea, 504 h, rate 250 ppm, read-out: % Control IPOHE): 100%; pest or weed control at 250 ppm ([2]; Abutilon theophrasti, 504 h, rate 250 ppm, read-out: % Control ABUTH): 100%; pest or weed control at 250 ppm ([3]; Amaranthus retroflexus, 504 h, rate 250 ppm, read-out: % Control AMARE): 95%; pest or weed control at 250 ppm [4, 10]: 100%; pest or weed control at 250 ppm [5, 11]: 95%; pest or weed control at 250 ppm [6, 12]: 100%
13 | COC(=O)c1nc(Br)c(Br)c(N)c1Br [Compound 18, Methyl 4-amino-3,5,6-tribromopyridine-2-carboxylate] | – | – | – | – | – | – | pest or weed control at 280 ppm [1, 7]: 30%; pest or weed control at 280 ppm [2, 8]: 98%; pest or weed control at 280 ppm [3, 9]: 80%; pest or weed control at 250 ppm [4, 10]: 85%; pest or weed control at 250 ppm [5, 11]: 90%; pest or weed control at 250 ppm [6, 12]: 75%
14 | C=CCNc1cc(Cl)nc(C(=O)O)c1Cl [Compound 30, 4-N-allylamino-3,6-dichloropyridine-2-carboxylic acid] | 85% | 95% | 90% | 100% | 80% | 100% | –
15 | COCCNc1cc(Cl)nc(C(=O)O)c1Cl [Compound 32, 4-N-methoxyethylamino-3,6-dichloropyridine-2-carboxylic acid] | 90% | 90% | 70% | 80% | 20% | 100% | –
